Experimental data as given in US20250107999A1, “INJECTABLE FORMULATION CONTAINING ISOXAZOLINE DERIVATIVE” (LG CHEM, LTD., priority 2022, published 2025).

Assays:
[1] = Confirmation of API solubility according to solvent pH (24 hours, HPLC); format: physicochemical
[2] = API stability in solution (solvent of Example 23, HPLC); format: physicochemical; conditions: 10 mg/ml API
Description: Therefore, in order to measure the content of the active form in the solution after preparing the injection, 10 mg/ml of API was dissolved using the solvent of Example 23, and the concentration and purity of the active API (Compound of Formula 2), which changed over time, were measured using HPLC until 60 minutes after dissolution.

caspase = test: Caspase inhibitory activity; format: biochemical
[3] = Change in content of active compound of Formula 2 over time according to solvent pH (FIG. 1); format: physicochemical
Description: In addition, after dissolving the API in solvents, the change in the content of the active compound of Formula 2 was measured over time.

| SMILES | solubility ([1]; acidic solvents with a pH of 4 or less) | solubility ([1]; basic solvents with a pH of 7.5 or more) | solubility ([1]; weakly acidic solvents with a pH of 6 or more) | Peak Area Active ([2]; 30 min after mixing) | Peak Area Inactive ([2]; 30 min after mixing) [%] | Peak Area Active ([2]; 60 min after mixing) [%] | Peak Area Inactive ([2]; 60 min after mixing) [%] | caspase inhibitory activity (caspase) | conversion of compound of Formula 2 into compound of Formula 3 ([3]; acidic solvent) | conversion of compound of Formula 2 into compound of Formula 3 ([3]; basic solvent with a neutral pH or higher) |
| --- | --- | --- | --- | --- | --- | --- | --- | --- | --- | --- |
| CC(C)[C@@]1(C(=O)NC2CC(=O)OC2(O)CF)CC(c2nccc3ccccc23)=NO1 (stereo in doubt) [compound of Formula 1, (R)-N-((2S,3S)-2-(fluoromethyl)-2-hydroxy-5-oxotetrahydrofuran-3-yl)-5-isopropyl-3-(isoquinolin-1-yl)-4,5-dihydroisoxazol-5-carboxamide] | hardly soluble | well soluble | began to dissolve | about 95.5% | 4.33 | 94.18 | 5.59 | – | – | – |
| CC(C)[C@@]1(C(=O)N[C@@H](CC(=O)O)C(=O)CF)CC(c2nccc3ccccc23)=NO1 [compound of Formula 2] | – | – | – | – | – | – | – | active form | – | – |
| CC(C)[C@@]1(C(=O)N[C@H](CC(=O)O)C(=O)CF)CC(c2nccc3ccccc23)=NO1 [compound of Formula 3] | – | – | – | – | – | – | – | does not show caspase inhibitory activity | hardly produced | rapidly produced |
